{
  "source": "patent US12059478B2",
  "about": "“Gene therapy” (Ospedale San Raffaele S.r.l., priority 2016, dated 2024)",
  "key": {"ATR [1]": {"molecular_target": "T1, ATR (Mus musculus, UniProt Q9JKK8)", "T1 construct": "endogenous in cells; host or cells: 3T3TopBP1-ER cells", "conditions": "3T3TopBP1-ER cells; cited from earlier work"}, "ATM kinase": {"molecular_target": "ATM kinase (Homo sapiens, UniProt Q13315)", "conditions": "cited from earlier work"}, "ATR [2]": {"molecular_target": "ATR (Homo sapiens, UniProt Q13535, F134E)", "sequence (Q13535 whole entry F134E)": "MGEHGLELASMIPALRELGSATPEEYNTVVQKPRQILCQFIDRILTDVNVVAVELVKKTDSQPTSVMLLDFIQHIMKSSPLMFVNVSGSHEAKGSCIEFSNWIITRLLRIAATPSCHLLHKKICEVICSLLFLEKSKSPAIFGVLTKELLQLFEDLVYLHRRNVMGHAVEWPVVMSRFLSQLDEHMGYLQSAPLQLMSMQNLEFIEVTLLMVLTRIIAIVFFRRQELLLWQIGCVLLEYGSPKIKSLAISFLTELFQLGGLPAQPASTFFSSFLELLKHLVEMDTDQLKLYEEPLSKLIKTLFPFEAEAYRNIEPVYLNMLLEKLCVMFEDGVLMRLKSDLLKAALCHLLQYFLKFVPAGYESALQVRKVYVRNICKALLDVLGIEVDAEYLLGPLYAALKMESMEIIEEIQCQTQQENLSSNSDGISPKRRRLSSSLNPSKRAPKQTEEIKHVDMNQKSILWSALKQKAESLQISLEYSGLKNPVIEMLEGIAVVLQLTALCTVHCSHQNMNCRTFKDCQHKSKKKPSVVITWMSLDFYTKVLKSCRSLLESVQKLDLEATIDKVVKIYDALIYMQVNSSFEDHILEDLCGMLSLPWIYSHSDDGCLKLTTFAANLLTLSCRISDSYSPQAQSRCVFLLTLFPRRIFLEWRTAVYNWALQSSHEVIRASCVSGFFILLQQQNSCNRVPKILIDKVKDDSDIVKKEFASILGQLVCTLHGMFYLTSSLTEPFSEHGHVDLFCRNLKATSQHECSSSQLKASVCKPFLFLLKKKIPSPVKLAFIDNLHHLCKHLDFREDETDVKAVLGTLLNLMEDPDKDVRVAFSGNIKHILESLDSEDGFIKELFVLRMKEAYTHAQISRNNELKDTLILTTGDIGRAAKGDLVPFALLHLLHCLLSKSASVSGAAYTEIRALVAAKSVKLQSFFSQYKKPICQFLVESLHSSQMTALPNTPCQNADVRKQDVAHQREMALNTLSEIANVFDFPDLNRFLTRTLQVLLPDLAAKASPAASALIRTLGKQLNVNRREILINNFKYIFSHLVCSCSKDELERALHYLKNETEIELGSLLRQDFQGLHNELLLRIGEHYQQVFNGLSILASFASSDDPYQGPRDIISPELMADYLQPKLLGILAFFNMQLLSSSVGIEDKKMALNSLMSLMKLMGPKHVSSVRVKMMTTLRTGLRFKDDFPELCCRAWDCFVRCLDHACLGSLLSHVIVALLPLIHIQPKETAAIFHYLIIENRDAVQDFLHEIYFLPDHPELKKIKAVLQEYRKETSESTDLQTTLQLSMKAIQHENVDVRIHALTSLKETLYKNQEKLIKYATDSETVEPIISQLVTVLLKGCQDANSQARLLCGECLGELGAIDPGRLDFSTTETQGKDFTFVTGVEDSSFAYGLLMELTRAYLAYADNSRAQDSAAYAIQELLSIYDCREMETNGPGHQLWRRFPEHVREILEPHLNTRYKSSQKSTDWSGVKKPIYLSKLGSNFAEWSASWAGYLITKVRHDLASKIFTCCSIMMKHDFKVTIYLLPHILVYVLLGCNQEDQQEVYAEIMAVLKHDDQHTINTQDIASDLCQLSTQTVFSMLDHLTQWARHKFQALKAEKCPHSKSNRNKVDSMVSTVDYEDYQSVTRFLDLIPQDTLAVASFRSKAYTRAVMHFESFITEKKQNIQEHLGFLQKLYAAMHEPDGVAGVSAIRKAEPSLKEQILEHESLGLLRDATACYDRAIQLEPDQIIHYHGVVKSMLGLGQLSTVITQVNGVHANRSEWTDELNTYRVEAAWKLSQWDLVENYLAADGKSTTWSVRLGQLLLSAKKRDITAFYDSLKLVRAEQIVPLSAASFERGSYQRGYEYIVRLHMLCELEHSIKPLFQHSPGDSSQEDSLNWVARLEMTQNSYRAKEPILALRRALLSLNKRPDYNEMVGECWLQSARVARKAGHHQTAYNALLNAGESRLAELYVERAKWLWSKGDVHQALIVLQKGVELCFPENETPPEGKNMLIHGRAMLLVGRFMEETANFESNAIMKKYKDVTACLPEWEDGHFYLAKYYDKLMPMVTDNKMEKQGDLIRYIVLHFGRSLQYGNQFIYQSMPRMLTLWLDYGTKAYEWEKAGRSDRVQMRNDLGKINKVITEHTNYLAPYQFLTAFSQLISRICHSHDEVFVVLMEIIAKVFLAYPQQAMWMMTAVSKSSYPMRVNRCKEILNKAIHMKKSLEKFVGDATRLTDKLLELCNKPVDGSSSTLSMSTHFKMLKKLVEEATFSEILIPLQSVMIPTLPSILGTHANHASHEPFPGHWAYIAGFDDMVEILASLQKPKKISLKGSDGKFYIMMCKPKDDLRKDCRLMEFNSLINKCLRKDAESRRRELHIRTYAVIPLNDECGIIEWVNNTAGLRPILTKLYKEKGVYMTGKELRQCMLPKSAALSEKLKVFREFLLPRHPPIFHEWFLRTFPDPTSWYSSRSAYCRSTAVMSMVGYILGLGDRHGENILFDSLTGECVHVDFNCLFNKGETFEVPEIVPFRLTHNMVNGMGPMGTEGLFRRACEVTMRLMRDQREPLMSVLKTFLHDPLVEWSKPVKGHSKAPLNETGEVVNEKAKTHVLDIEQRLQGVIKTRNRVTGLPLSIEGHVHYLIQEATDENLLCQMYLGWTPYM", "sequence (Q8WXE1 whole entry partner)": "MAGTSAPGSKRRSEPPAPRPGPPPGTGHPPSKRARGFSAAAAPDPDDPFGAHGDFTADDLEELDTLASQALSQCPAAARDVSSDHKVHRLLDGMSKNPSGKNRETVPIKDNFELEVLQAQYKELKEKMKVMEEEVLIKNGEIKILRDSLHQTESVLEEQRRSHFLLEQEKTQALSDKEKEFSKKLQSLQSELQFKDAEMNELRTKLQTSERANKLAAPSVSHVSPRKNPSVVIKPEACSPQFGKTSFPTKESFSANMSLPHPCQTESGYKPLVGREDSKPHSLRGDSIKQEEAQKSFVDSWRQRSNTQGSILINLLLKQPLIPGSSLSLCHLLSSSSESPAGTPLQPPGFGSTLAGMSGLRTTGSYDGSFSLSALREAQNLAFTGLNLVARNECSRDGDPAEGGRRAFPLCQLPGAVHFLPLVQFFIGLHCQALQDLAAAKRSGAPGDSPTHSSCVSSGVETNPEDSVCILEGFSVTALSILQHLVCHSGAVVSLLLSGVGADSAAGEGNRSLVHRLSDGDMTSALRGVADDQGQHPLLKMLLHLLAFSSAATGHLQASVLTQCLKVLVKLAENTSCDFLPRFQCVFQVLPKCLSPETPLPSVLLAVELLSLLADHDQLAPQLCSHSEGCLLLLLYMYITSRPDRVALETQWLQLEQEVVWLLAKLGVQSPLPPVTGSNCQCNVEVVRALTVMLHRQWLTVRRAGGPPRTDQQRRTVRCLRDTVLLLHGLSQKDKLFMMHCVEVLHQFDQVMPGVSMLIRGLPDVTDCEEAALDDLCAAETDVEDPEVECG", "conditions": "cited from earlier work"}, "human CD34+ HSPC": {"tested_on": "human CD34+ HSPC", "test": "Annexin V apoptosis assay after transduction", "type": "cell-based", "from_the_text": "Human CD34+ hematopoietic stem and progenitor cells (HSPC) and CD4+ T cells were isolated through magnetic bead selection according to the manufacturer's instructions (Milteny) from umbilical cord blood (CB) collected upon informed consent from healthy volunteers according to the Institutional Ethical Committee approved protocol (TIGET01). Otherwise, CB and bone marrow (BM)-derived CD34+ were directly purchased from Lonza. Cells were purified and cultured as described in Petrillo et al. (Petrillo, C. et al. (2015) Molecular Therapy 23: 352-362). K562 and Hela cell lines were plated in complete Iscove's modified Dulbecco's medium (Euroclone). HL-60 cells were grown and transduced in complete RPMI. HCT-116 cells were grown and transduced in complete Dulbecco's Modified Eagle Medium (DMEM). Murine Lin− cells were isolated through magnetic bead selection according to the manufacturer's instructions (Miltenyi) from bone marrow of euthanised C57/BL6 mice. For the clinical standard double-hit transduction protocol, cells were washed 16 h after the first vector exposure, left to recover in cytokine-supplemented medium for 10 h and re-exposed to the second hit of vector for another 16 h before transplantation. […] All cells were transduced at the indicated multiplicity of infection (MOI) as calculated by titration of vector stocks on 293T cells for Lentiviral and Retroviral vectors. Transductions with the AAV6 vectors were performed at an MOI of 10000 as calculated by titration of the vector preparation expressed in vector genome per mL (vg/mL). […]\n(§1) Human HSPC fluorescence associated cell sorting was performed as described in Petrillo et al. (Petrillo, C. et al. (2015) Molecular Therapy 23: 352-362). All cytometric analyses were performed using the FACS […] instrument and LSRFortessa instruments (BD Biosciences, San Jose, CA) and analysed with the FACS Express software (De Novo Software, Glendale, CA). GFP expression in transduced cells was measured 5-7 days post-transduction. […]"}, "[3]": {"tested_on": "p53 signalling (p21 mRNA) in human CD34+ HSPC", "test": "p21 mRNA induction (p53 signalling) after vector transduction, Taqman", "type": "cell-based", "conditions": "for LV-induced p21 mRNA in presence of the inhibitor: CB-CD34+, LV MOI 100, inhibitor 10 μM, 48 h", "from_the_text": "Human CD34+ hematopoietic stem and progenitor cells (HSPC) and CD4+ T cells were isolated through magnetic bead selection according to the manufacturer's instructions (Milteny) from umbilical cord blood (CB) collected upon informed consent from healthy volunteers according to the Institutional Ethical Committee approved protocol (TIGET01). Otherwise, CB and bone marrow (BM)-derived CD34+ were directly purchased from Lonza. Cells were purified and cultured as described in Petrillo et al. (Petrillo, C. et al. (2015) Molecular Therapy 23: 352-362). K562 and Hela cell lines were plated in complete Iscove's modified Dulbecco's medium (Euroclone). HL-60 cells were grown and transduced in complete RPMI. HCT-116 cells were grown and transduced in complete Dulbecco's Modified Eagle Medium (DMEM). Murine Lin− cells were isolated through magnetic bead selection according to the manufacturer's instructions (Miltenyi) from bone marrow of euthanised C57/BL6 mice. For the clinical standard double-hit transduction protocol, cells were washed 16 h after the first vector exposure, left to recover in cytokine-supplemented medium for 10 h and re-exposed to the second hit of vector for another 16 h before transplantation. All animal procedures were performed according to protocols approved by the Animal Care and Use Committee of the Ospedale San Raffaele (IACUC 611) and according to Italian law. All cells were transduced at the indicated multiplicity of infection (MOI) as calculated by titration of vector stocks on 293T cells for Lentiviral and Retroviral vectors. Transductions with the AAV6 vectors were performed at an MOI of 10000 as calculated by titration of the vector preparation expressed in vector genome per mL (vg/mL). All the transductions were performed at 1×10^6 cells/mL concentration. In the experiment with anti-retroviral inhibitors, the drugs were added together with the vector. Raltegravir and 3TC were used at 10 μM, and AZT at 25 μM. In the ATM inhibition experiment, single hit of the ATM inhibitor KU55933 (Selleck Chemicals) was added to the cells 2 hours before the transduction at 10 μM concentration. All cells were maintained in a 5% CO2 humidified atmosphere at 37° C.\nTotal RNA was extracted with the RNeasy Plus Micro kit or RNeasy Micro Kit (Qiagen) and Reverse transcription was performed using SuperScriptVILO cDNA Synthesis Kit (ThermoFisher Scientific) according to the manufacturers' instructions. Gene expression analysis was performed by Taqman probe (Thermo Fisher, Table 6) as described in Petrillo et al. (Petrillo, C. et al. (2015) Molecular Therapy 23: 352-362), human HPRT1 or murine Hprt were used to normalise the total quantity of human or mouse cDNA input respectively."}, "[4]": {"conditions": "DMSO, ethanol; cited from earlier work"}, "mPB CD34+ cells": {"tested_on": "mPB CD34+ cells", "test": "Two-hit transduction protocol in mPB CD34+ cells with clinical-grade LV (apoptosis, CFC, cell counts, p21)", "type": "cell-based, human", "conditions": "two hits MOI 100 clinical-grade LV, 10 μM", "from_the_text": "(§2) Human CD34+ hematopoietic stem and progenitor cells (HSPC) and CD4+ T cells were isolated through magnetic bead selection according to the manufacturer's instructions (Milteny) from umbilical cord blood (CB) collected upon informed consent from healthy volunteers according to the Institutional Ethical Committee approved protocol (TIGET01). Otherwise, CB and bone marrow (BM)-derived CD34+ were directly purchased from Lonza. Cells were purified and cultured as described in Petrillo et al. (Petrillo, C. et al. (2015) Molecular Therapy 23: 352-362). K562 and Hela cell lines were plated in complete Iscove's modified Dulbecco's medium (Euroclone). […] All cells were transduced at the indicated multiplicity of infection (MOI) as calculated by titration of vector stocks on 293T cells for Lentiviral and Retroviral vectors. Transductions with the AAV6 vectors were performed at an MOI of 10000 as calculated by titration of the vector preparation expressed in vector genome per mL (vg/mL). […]\nCFC assay cells were performed as described in Petrillo et al and Gentner et al. (Petrillo, C. et al. (2015) Molecular Therapy 23: 352-362; Gentner, B. et al. (2010) Science Translational Medicine 2: 58ra84). After ten days, colonies were identified as erythroid or myeloid by morphological criteria, counted, plucked and pooled into sets of three to obtain DNA for quantification of vector content. […]"}, "human CB-CD34+ cells [5]": {"tested_on": "human CB-CD34+ cells", "test": "Cell proliferation dye assay", "type": "cell-based", "conditions": "LV MOI 100, 2 days"}, "[6]": {"tested_on": "Interferon stimulated genes (IRF7, OAS1, ISG15) in human CB-CD34+", "test": "Interferon stimulated gene mRNA induction", "type": "cell-based", "conditions": "RV MOI 100, 48 h, Raltegravir and KU55933 10 μM, AZT 25 μM", "from_the_text": "as §2, with “(Euroclone). HL-60 cells were grown and transduced in complete RPMI. HCT-116 cells were grown and transduced in complete Dulbecco's Modified Eagle Medium (DMEM). Murine Lin− cells were isolated through magnetic bead selection according to the manufacturer's instructions (Miltenyi) from bone marrow of euthanised C57/BL6 mice.” for “(Euroclone).”"}, "[7]": {"tested_on": "human CD45+ cells in the peripheral blood", "test": "Transplantation of transduced human HSPC in NSG mice (engraftment)", "conditions": "transient inhibition during ex vivo transduction"}, "human CB-CD34+ cells [8]": {"tested_on": "human CB-CD34+ cells", "test": "Transduction efficiency (GFP expression, integrated vector copy number)", "type": "cell-based", "conditions": "LV MOI 100, 10 μM, 14 days", "from_the_text": "as §2\nas §1, with “CA).” for “CA). GFP expression in transduced cells was measured 5-7 days post-transduction.”"}, "[9]": {"conditions": "CB-CD34+ exposed to AAV-6 MOI 10000, 10 μM"}},
  "data": [
    {"molecule": "Cn1c(=O)n(-c2ccc(C(C)(C)C#N)cc2)c2c3cc(-c4cnc5ccccc5c4)ccc3ncc21", "note": "[BEZ235, Dactolisib]", "values": [
      {"measurement": "IC50", "setting": "ATR [1]", "value": "~21", "unit": "nM"}
    ]},
    {"molecule": "O=C(NC(NC(=S)Nc1ccc(F)c([N+](=O)[O-])c1)C(Cl)(Cl)Cl)C(c1ccccc1)c1ccccc1", "note": "(centres unmarked) [CGK 733]", "values": [
      {"measurement": "IC50", "setting": "ATM kinase", "value": "~200", "unit": "nM"},
      {"measurement": "IC50", "setting": "ATR [2]", "value": "~200", "unit": "nM"}
    ]},
    {"molecule": "COc1cc2ncnc(-n3nc(-c4ccccn4)nc3N)c2cc1OC", "note": "[CP-466722]", "values": [
      {"measurement": "ATM kinase inhibition", "setting": "ATM kinase", "value": "potent and reversible ATM kinase inhibitor"},
      {"measurement": "Effect on ATR", "setting": "ATR [2]", "value": "does not affect ATR"}
    ]},
    {"molecule": "O=c1cc(-c2cccc3c2Sc2ccccc2S3)oc(N2CCOCC2)c1", "note": "[KU-55933]", "values": [
      {"measurement": "AAV-6-induced apoptosis under ATM inhibition", "setting": "human CD34+ HSPC; [9]", "value": "rescued"},
      {"measurement": "LV-induced apoptosis in presence of the inhibitor", "setting": "human CD34+ HSPC; CB-CD34+, LV MOI 100, inhibitor 10 μM, 48 h", "value": "partially abrogated"},
      {"measurement": "AAV-6-induced p21 mRNA under ATM inhibition", "setting": "[3]; [9]", "value": "rescued"},
      {"measurement": "LV-induced p21 mRNA in presence of the inhibitor", "setting": "[3]", "value": "significantly reduced"},
      {"measurement": "Solubility", "setting": "[4]", "value": "soluble in DMSO and ethanol"},
      {"measurement": "Impact of ATM inhibition on apoptosis, colony output, cell counts in culture and p21 induction", "setting": "mPB CD34+ cells", "value": "Positive impact"},
      {"measurement": "Proliferation delay of LV-transduced HSPC under ATM inhibition", "setting": "human CB-CD34+ cells [5]", "value": "did not affect"},
      {"measurement": "γRV-mediated ISG induction in presence of the inhibitor", "setting": "[6]", "value": "no impact"},
      {"measurement": "Improvement of LV-exposed HSPC engraftment", "setting": "[7]", "value": "around 25%"}
    ]},
    {"molecule": "Cc1nnc(C(=O)NC(C)(C)c2nc(C(=O)NCc3ccc(F)cc3)c(O)c(=O)n2C)o1", "note": "[Raltegravir]", "values": [
      {"measurement": "LV-induced p21 mRNA in presence of the inhibitor", "setting": "[3]", "value": "still occurred"},
      {"measurement": "LV integration (VCN) in presence of integrase inhibitor", "setting": "human CB-CD34+ cells [8]", "value": "efficient block"},
      {"measurement": "γRV-mediated ISG induction in presence of the inhibitor", "setting": "[6]", "value": "occurred also"}
    ]},
    {"molecule": "GSE56: dominant negative form of p53 (SEQ ID NO: 6), over-expressed from a LV (protein, listed as Homo sapiens) CPGRDRRTEEENFRKKEEHCPELPPGSAKRALPTSTSSSPQQKKKPLDGEYFTLKIRGRERFEMFRELNEALELKDARAAEESGDSRAHSSYPK", "values": [
      {"measurement": "Apoptosis upon a second round of transduction", "setting": "human CD34+ HSPC; GSE56-expressing HSPC, 48 h after second hit", "value": "reduced apoptosis"},
      {"measurement": "p21 induction upon a second round of LV or AAV6 transduction", "setting": "[3]; GSE56-expressing CB-CD34+ vs control transduced", "value": "completely prevented"},
      {"measurement": "p53 signalling upon DNA damage by Captothecin (CPT)", "setting": "[3]; GSE56-overexpressing HSPC", "value": "efficiently block p53 signalling"}
    ]}
  ]
}
